Experimental data taken from US11654136B2, “Phosphoinositide 3-kinase inhibitor with a zinc binding moiety” (Curis, Inc., priority 2011, dated 2023).
“Also recorded” adds a separate entry of the source. Like-named read-outs stand apart in the source and are kept apart here.

Tests used:
[1] = test system: HDACs (HeLa cell nuclear extracts); test: HDAC activity assay (Biomol Color de Lys); type: biochemical
Method: HDAC inhibitory activity was assessed using the Biomol Color de Lys system (AK-500, Biomol, Plymouth Meeting, Pa.). Briefly, HeLa cell nuclear extracts were used as a source of HDACs. Different concentrations of test compounds were serially diluted in dimethylsulfoxide (DMSO) and added to HeLa cell nuclear extracts in the presence of a colorimetric artificial substrate. Final assay condition contained 50 mM Tris/C1, pH 8.0, 137 mM NaCl, 2.7 mM KCl and 1 mM MgCl2. Reactions were carried in room temperature (25° C.) for 1 hour before addition of developer for termination. Relative enzyme activity was measured in the WALLAC Victor II 1420 microplate reader as fluorescence intensity (excitation: 350-380 nm; emission: 440-460 nm). Data were analyzed using GraphPad Prism (v4.0a) with a sigmoidal dose response curve fitting for IC50 calculation.

[2] = test system: H2122 (human NSCLC cell line) xenograft tumors; test: H2122 xenograft tumor model; type: in vivo, nude mice
Method: SU-DHL4 (diffuse large B-cell lymphoma cell line), H2122 (human NSCLC cell line), Daudi (non-Hodgkin's lymphoma cell line), and OPM2 (multiple myeloma tumor cell line) cells were implanted into either nude or Scid (severe […] immune-deficient) mice. […]. […] The control groups were treated with vehicle using the same dosing schedule as the corresponding active group.
In another study, the Daudi tumor group was dosed at 50 mg/Kg twice a day for five days per week. […] The SU-DHL4 tumor group was dosed at 100 mg/Kg orally or 50 mg/Kg intravenously.
Tumors were measured during the study period with an electronic caliper, and body weights were measured twice a week. The following formula was used to calculate the tumor volume: […] Percentage of tumor volume change was used to describe compound activity over the treatment period.

[3] = test system: Salmonella typhimurium TA98; test: Mini-Salmonella/mammalian-microsome reverse mutation assay TA98
Method: (§1) The tester strains used in the mutagenicity assay were Salmonella typhimurium tester strains TA98 (for detecting frame-shift reverse mutation) and TA100 (for detecting point reverse mutation). The assay was conducted in both the presence and absence of S9 mixture along with concurrent vehicle (DMSO, 20 μl/well) and positive controls in duplicate using 6-well plates. […] A reproducible two-fold increase (>2× of vehicle control) of revertant colonies over the daily average control value is considered a positive response of gene mutation for each strain.
(§2) 2-nitrofluorene and sodium azide served as the positive controls in the absence of S9 for TA98 and TA100 respectively. 2-Aminoanthracene served as the positive controls in the presence of S9 for TA98 and TA100.

[4] = test system: Salmonella typhimurium TA100
Method: as §1, §2

[5] = test system: Raf, MEK, and ERK; test: Western blot of RAF-MEK-ERK pathway in H460, A375, BT-474 and H1975 cells; type: cell-based; settings: 100 nM, 16 hours
Method: Cell extracts were prepared in the presence of SDS and 2-mercaptoethanol and resolved in polyacrylamide gels. Proteins were transferred to nitrocellulose filter and blotting was done using standard procedures with blocking solutions (Li-Cor Bioscience) containing the indicated primary antibody. Primary antibodies against p-EGFR, EGFR, p-HER2, HER2, p-HER3, HER3, p-MET, MET, p-bRaf, p-cRaf, pMEK, MEK, p-ERK, ERK and tubulin were purchased from Cell Signaling Technology. Secondary antibody conjugated with IRdye 680, 800CW were used and the signal was detected with Li-Cor Odyssey Imager.
One major limitation of PI3K inhibitors in the treatment of cancers is the activation of the RAF-MEK-ERK pathway. HDAC inhibitors are able to inhibit kinase levels in this signaling pathway in cancer cells via epigenetic modification.

[6] = test system: p-STAT3 (Y-705) and p-Src; test: Western blot in RPMI-8226 myeloma cells; type: cell-based; settings: 1 μM, 16 h
[7] = presence and absence of S9, up to 1000 μg/well

COc1ccc(-c2nc(N3CCOCC3)c3sc(CN(C)c4ncc(C(=O)NO)cn4)cc3n2)cn1 [Compound 1, N-hydroxy-2-(((2-(6-methoxypyridin-3-yl)-4-morpholinothieno[3,2-d]pyrimidin-6-yl)methyl)(methyl)amino)pyrimidine-5-carboxamide]
IC50 [1]: < 0.1 µM
Body weight ([2]; oral 75 mg/Kg twice a day, H2122 tumor-bearing nude mice): body weight loss
Tumor growth ([2]; oral 75 mg/kg twice a day, then 50 mg/Kg twice a day from Day-11, five days per week): efficacious
Background Lawn TA98 ([3]; +S9, 62.5 μg/well): 4/4
Revertants per well TA98, Mean ([3]; +S9, 62.5 μg/well): 5
Revertants per well TA98, well 1 ([3]; +S9, 62.5 μg/well): 4
Revertants per well TA98, well 2 ([3]; +S9, 62.5 μg/well): 6
Background Lawn TA98 ([3]; +S9, 125 μg/well): 4/4
Revertants per well TA98, Mean ([3]; +S9, 125 μg/well): 5
Revertants per well TA98, well 1 ([3]; +S9, 125 μg/well): 6
Revertants per well TA98, well 2 ([3]; +S9, 125 μg/well): 3
Background Lawn TA98 ([3]; +S9, 250 μg/well): 4/4
Revertants per well TA98, Mean ([3]; +S9, 250 μg/well): 7
Revertants per well TA98, well 1 ([3]; +S9, 250 μg/well): 8
Revertants per well TA98, well 2 ([3]; +S9, 250 μg/well): 6
Background Lawn TA98 ([3]; +S9, 500 μg/well): 3,sp/3,sp
Revertants per well TA98, Mean ([3]; +S9, 500 μg/well): 6
Revertants per well TA98, well 1 ([3]; +S9, 500 μg/well): 6
Revertants per well TA98, well 2 ([3]; +S9, 500 μg/well): 6
Background Lawn TA98 ([3]; +S9, 1000 μg/well): 3,mp/3,mp
Revertants per well TA98, Mean ([3]; +S9, 1000 μg/well): 7
Revertants per well TA98, well 1 ([3]; +S9, 1000 μg/well): 6
Revertants per well TA98, well 2 ([3]; +S9, 1000 μg/well): 7
Mutagenic response TA98 [3, 7]: no evidence of a significant increase in the mean number of revertant colonies; also recorded: did not induce a positive mutagenic response
Background Lawn TA98 ([3]; −S9, 62.5 μg/well): 4/4
Revertants per well TA98, Mean ([3]; −S9, 62.5 μg/well): 4
Revertants per well TA98, well 1 ([3]; −S9, 62.5 μg/well): 4
Revertants per well TA98, well 2 ([3]; −S9, 62.5 μg/well): 4
Background Lawn TA98 ([3]; −S9, 125 μg/well): 4/4
Revertants per well TA98, Mean ([3]; −S9, 125 μg/well): 5
Revertants per well TA98, well 1 ([3]; −S9, 125 μg/well): 4
Revertants per well TA98, well 2 ([3]; −S9, 125 μg/well): 6
Background Lawn TA98 ([3]; −S9, 250 μg/well): 4,sp/4,sp
Revertants per well TA98, Mean ([3]; −S9, 250 μg/well): 6
Revertants per well TA98, well 1 ([3]; −S9, 250 μg/well): 6
Revertants per well TA98, well 2 ([3]; −S9, 250 μg/well): 5
Background Lawn TA98 ([3]; −S9, 500 μg/well): 3,sp/3,sp
Revertants per well TA98, Mean ([3]; −S9, 500 μg/well): 4
Revertants per well TA98, well 1 ([3]; −S9, 500 μg/well): 5
Revertants per well TA98, well 2 ([3]; −S9, 500 μg/well): 3
Background Lawn TA98 ([3]; −S9, 1000 μg/well): 3,mp/3,mp
Revertants per well TA98, Mean ([3]; −S9, 1000 μg/well): 5
Revertants per well TA98, well 1 ([3]; −S9, 1000 μg/well): 4
Revertants per well TA98, well 2 ([3]; −S9, 1000 μg/well): 5
Background Lawn TA100 ([4]; +S9, 62.5 μg/well): 4/4
Revertants per well TA100, Mean ([4]; +S9, 62.5 μg/well): 32
Revertants per well TA100, well 1 ([4]; +S9, 62.5 μg/well): 34
Revertants per well TA100, well 2 ([4]; +S9, 62.5 μg/well): 30
Background Lawn TA100 ([4]; +S9, 125 μg/well): 4/4
Revertants per well TA100, Mean ([4]; +S9, 125 μg/well): 29
Revertants per well TA100, well 1 ([4]; +S9, 125 μg/well): 28
Revertants per well TA100, well 2 ([4]; +S9, 125 μg/well): 30
Background Lawn TA100 ([4]; +S9, 250 μg/well): 4/4
Revertants per well TA100, Mean ([4]; +S9, 250 μg/well): 29
Revertants per well TA100, well 1 ([4]; +S9, 250 μg/well): 30
Revertants per well TA100, well 2 ([4]; +S9, 250 μg/well): 28
Background Lawn TA100 ([4]; +S9, 500 μg/well): 3,sp/3,sp
Revertants per well TA100, Mean ([4]; +S9, 500 μg/well): 35
Revertants per well TA100, well 1 ([4]; +S9, 500 μg/well): 32
Revertants per well TA100, well 2 ([4]; +S9, 500 μg/well): 37
Background Lawn TA100 ([4]; +S9, 1000 μg/well): 3,mp/3,mp
Revertants per well TA100, Mean ([4]; +S9, 1000 μg/well): 34
Revertants per well TA100, well 1 ([4]; +S9, 1000 μg/well): 33
Revertants per well TA100, well 2 ([4]; +S9, 1000 μg/well): 34
Mutagenic response TA100 [4, 7]: no evidence of a significant increase in the mean number of revertant colonies; also recorded: did not induce a positive mutagenic response
Background Lawn TA100 ([4]; −S9, 62.5 μg/well): 4/4
Revertants per well TA100, Mean ([4]; −S9, 62.5 μg/well): 32
Revertants per well TA100, well 1 ([4]; −S9, 62.5 μg/well): 34
Revertants per well TA100, well 2 ([4]; −S9, 62.5 μg/well): 30
Background Lawn TA100 ([4]; −S9, 125 μg/well): 4/4
Revertants per well TA100, Mean ([4]; −S9, 125 μg/well): 33
Revertants per well TA100, well 1 ([4]; −S9, 125 μg/well): 32
Revertants per well TA100, well 2 ([4]; −S9, 125 μg/well): 34
Background Lawn TA100 ([4]; −S9, 250 μg/well): 4,sp/4,sp
Revertants per well TA100, Mean ([4]; −S9, 250 μg/well): 32
Revertants per well TA100, well 1 ([4]; −S9, 250 μg/well): 34
Revertants per well TA100, well 2 ([4]; −S9, 250 μg/well): 29
Background Lawn TA100 ([4]; −S9, 500 μg/well): 3,sp/3,sp
Revertants per well TA100, Mean ([4]; −S9, 500 μg/well): 32
Revertants per well TA100, well 1 ([4]; −S9, 500 μg/well): 33
Revertants per well TA100, well 2 ([4]; −S9, 500 μg/well): 31
Background Lawn TA100 ([4]; −S9, 1000 μg/well): 3,mp/3,mp
Revertants per well TA100, Mean ([4]; −S9, 1000 μg/well): 27
Revertants per well TA100, well 1 ([4]; −S9, 1000 μg/well): 28
Revertants per well TA100, well 2 ([4]; −S9, 1000 μg/well): 26
Activation of Raf, MEK, and ERK [5]: suppressed activation of Raf, MEK, and ERK
p-STAT3 (Y-705) and p-Src [6]: inhibited p-STAT3 (Y-705) and p-Src
